The target in test [1] is T1, Human glucocorticoid receptors (Homo sapiens, UniProt P04150).
T1 construct: made in house; host or cells: Sf9 insect cells, recombinant baculovirus (BAC-TO-BAC)
T1 sequence (P04150 1-777): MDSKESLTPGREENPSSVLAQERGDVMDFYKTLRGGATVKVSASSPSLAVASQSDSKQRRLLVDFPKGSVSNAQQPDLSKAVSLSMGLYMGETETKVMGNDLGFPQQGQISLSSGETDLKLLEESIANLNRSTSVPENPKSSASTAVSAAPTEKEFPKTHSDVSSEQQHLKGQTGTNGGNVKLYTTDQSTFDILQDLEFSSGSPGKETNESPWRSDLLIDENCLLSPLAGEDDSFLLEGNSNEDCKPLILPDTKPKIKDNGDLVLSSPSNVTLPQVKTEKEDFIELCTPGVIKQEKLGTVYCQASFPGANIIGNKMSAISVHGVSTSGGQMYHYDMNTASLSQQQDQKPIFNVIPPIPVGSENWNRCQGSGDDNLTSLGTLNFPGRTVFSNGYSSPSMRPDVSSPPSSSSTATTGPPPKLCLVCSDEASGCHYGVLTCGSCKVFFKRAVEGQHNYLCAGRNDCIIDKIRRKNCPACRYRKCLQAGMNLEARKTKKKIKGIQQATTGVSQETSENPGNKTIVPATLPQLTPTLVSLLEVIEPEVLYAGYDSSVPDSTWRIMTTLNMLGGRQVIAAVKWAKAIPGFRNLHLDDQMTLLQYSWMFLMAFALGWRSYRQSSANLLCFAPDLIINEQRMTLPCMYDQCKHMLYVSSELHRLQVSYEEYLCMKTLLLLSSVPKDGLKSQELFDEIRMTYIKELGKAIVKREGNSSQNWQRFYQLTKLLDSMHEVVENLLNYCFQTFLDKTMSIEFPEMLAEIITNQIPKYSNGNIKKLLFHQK
As to the kind of experiment: Radioligand filter binding assay, displacement of 3[H]-dexamethasone from hGR. The conditions noted are these: read-out: GR Binding (% Inhibition at 1.7 μM). The essentials:
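Recombinant hGR extract from baculovirus-infected Sf9 cells (final ~1 nM receptor) incubated with ³H-dexamethasone and test compound dilutions in duplicate, EDTA/phosphate pH 8 buffer with MTG, overnight (15-20 h) at +4° C. Bound label collected on PEI-treated GF/B filters and scintillation-counted; IC50 from four-parameter fit of corrected cpm.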

In test [2] the target is T2, progesterone receptor (PR) (Homo sapiens, UniProt P06401).
T2 sequence (P06401 1-933): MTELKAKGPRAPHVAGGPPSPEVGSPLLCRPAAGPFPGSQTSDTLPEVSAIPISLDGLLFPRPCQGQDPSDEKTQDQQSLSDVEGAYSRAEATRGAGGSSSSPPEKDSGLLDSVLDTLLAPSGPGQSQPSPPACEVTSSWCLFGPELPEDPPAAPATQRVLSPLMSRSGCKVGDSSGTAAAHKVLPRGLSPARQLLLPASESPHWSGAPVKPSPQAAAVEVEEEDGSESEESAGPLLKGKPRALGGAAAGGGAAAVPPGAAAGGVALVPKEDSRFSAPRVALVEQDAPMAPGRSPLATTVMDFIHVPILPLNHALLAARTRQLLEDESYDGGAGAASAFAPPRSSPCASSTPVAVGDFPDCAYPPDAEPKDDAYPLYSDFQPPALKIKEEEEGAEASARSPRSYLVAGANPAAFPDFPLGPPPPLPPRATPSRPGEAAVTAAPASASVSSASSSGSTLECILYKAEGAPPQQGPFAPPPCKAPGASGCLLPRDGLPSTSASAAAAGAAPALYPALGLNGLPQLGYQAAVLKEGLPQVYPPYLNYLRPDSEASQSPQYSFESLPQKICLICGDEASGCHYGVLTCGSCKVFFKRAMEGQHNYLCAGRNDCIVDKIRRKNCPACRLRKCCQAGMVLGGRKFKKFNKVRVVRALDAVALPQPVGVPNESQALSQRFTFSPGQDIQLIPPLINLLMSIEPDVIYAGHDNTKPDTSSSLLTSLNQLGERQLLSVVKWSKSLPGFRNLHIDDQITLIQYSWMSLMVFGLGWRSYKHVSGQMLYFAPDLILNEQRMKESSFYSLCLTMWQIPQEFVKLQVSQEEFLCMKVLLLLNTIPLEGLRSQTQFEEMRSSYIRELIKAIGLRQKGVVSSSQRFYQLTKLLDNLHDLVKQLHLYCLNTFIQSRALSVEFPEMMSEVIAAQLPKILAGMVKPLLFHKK
Briefly: Radioligand binding assay for progesterone receptor (similar protocol).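 Note: radioligand binding measured with cytosol preparations containing the human progesterone receptor.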
Source text: Methods for Radiolipand Binding Studies with Human Glucocorticoid and Progesterone Receptor Cytosol

Test [3] has as its system obese diabetic db/db transgenic mice. The note with it: Friedman et al. 1997; cited from earlier work.

Each structure is given as a SMILES string.

By inhibition is commonly meant the drop in the measured response relative to a control, in per cent. Broadly, the IC50 is the concentration that inhibits the measured activity by half. High values mean weaker potency, low ones greater potency. As for `Cc1c(NS(C)(=O)=O)cccc1N(Cc1ccc(OCc2ccoc2)cc1)Cc1ccc(F)cc1F` [Example 154, N-(3-{(2,4-difluorobenzyl)[4-(3-furylmethoxy)benzyl]amino}-2-methylphenyl)methanesulfonamide], the inhibition at 1.7 µM in test [1] turned out to be 92.3%. The IC50 in test [2] is 921 nM.
Turning to `Cc1c(NS(C)(=O)=O)cccc1N(Cc1ccc(OCc2ccco2)cc1)Cc1ccc(F)cc1F` [Example 155, N-(3-{(2,4-difluorobenzyl)[4-(2-furylmethoxy)benzyl]amino}-2-methylphenyl)methanesulfonamide], in test [1], the inhibition at 1.7 µM amounted to 92.8%. Besides, in test [2], the IC50 amounted to 499 nM.
As to `Cc1c(NS(C)(=O)=O)cccc1N(Cc1ccc(Oc2ccc(Cl)c(O)c2)cc1)Cc1ccc(F)cc1F` [Example 322, N-(3-((4-(4-chloro-3-hydroxyphenoxy)benzyl)(2,4-difluorobenzyl)amino)-2-methylphenyl)methanesulfonamide], in test [1], the inhibition at 1.7 µM amounted to 98.5%. In test [2], the half-inhibitory concentration (IC50) turned out to be 360 nM.
As to `Cc1c(NS(C)(=O)=O)cccc1N(Cc1ccc(Oc2ccc(Br)c(OCC(=O)O)c2)cc1)Cc1ccc(F)cc1F` [Example 323, (2-bromo-5-(4-(((2,4-difluorobenzyl)(2-methyl-3-((methylsulfonyl)amino)phenyl)amino)methyl)phenoxy)phenoxy)acetic acid], in test [1], the inhibition at 1.7 µM turned out to be 98.2%. The same compound registered a 50% inhibitory concentration (IC50) in test [2] of 66.6 nM.
As to `Cc1c(NS(C)(=O)=O)cccc1N(Cc1ccc(Oc2cccc(OCCCC(=O)NCCC(=O)O)c2)cc1)Cc1ccc(F)cc1F` [Example 324, N-(4-(3-(4-(((2,4-difluorobenzyl)(2-methyl-3-((methylsulfonyl)amino)phenyl)amino)methyl)phenoxy)phenoxy)butanoyl)-beta-alanine], the inhibition at 1.7 µM in test [1] is 97.4%. In addition, in test [2], the IC50 was determined as 123 nM.
`Cc1c(NS(C)(=O)=O)cccc1N(Cc1ccc(Oc2cccc(OCCCC(=O)NCCCC(=O)O)c2)cc1)Cc1ccc(F)cc1F` [Example 325, 4-((4-(3-(4-(((2,4-difluorobenzyl)(2-methyl-3-((methylsulfonyl)amino)phenyl)amino)methyl)phenoxy)phenoxy)butanoyl)amino)butanoic acid]: in test [1], the inhibition at 1.7 µM amounted to 97.7%. For the same compound, the IC50 in test [2] turned out to be 122 nM.
On to `Cc1c(NS(C)(=O)=O)cccc1N(Cc1ccc(Oc2cccc(OCCCC(=O)N(C)CC(=O)O)c2)cc1)Cc1ccc(F)cc1F` [Example 326, N-(4-(3-(4-(((2,4-difluorobenzyl)(2-methyl-3-((methylsulfonyl)amino)phenyl)amino)methyl)phenoxy)phenoxy)butanoyl)-N-methylglycine], for which the inhibition at 1.7 µM in test [1] was 97%. The same compound returned an IC50 in test [2] of 183 nM.
Consider `CC#C[C@]1(O)CC[C@H]2[C@@H]3CCC4=CC(=O)CCC4=C3[C@@H](c3ccc(N(C)C)cc3)C[C@@]21C` [Mifepristone], for which the “reduction of plasma glucose levels” value in test [3] was 50%.

The record behind these values is patent US6583180B2, “Glucocorticoid receptor modulators” (Abbott Laboratories, priority 2001, dated 2003).
